pIC50: −log10 of the molar value.
Columns and labels:
[1] = tested on: MDCK-MDR1 cell monolayers; assay: Assessment of efflux in MDCK cells transfected with the human MDR1 gene (MDCK assay); format: in vitro ADME, canine; details: for Papp (a-b) mean: MDCK-MDR1, apical-to-basal, pH 7.4, 37° C.; for efflux ratio: MDCK-MDR1, Papp (b-a) divided by Papp (a-b)
Procedure: Assessment of Efflux in Madin-Darby Canine Kidney Cells Transfected with the Human MDR1 Gene (MDCK Assay)
Apparent permeability coefficients (PE) of the compounds across the MDCK-MDR1 cell monolayers are measured (pH 7.4, 37° C.) in apical-to-basal (AB) and basal-to-apical (BA) transport direction. AB permeability (PEAB) represents drug absorption from the blood into the brain and BA permeability (PEBA) drug efflux from the brain back into the blood via both passive permeability as well as active transport mechanisms mediated by efflux and uptake transporters that are expressed on the MDCK-MDR1 cells, predominantly by the overexpressed human MDR1 P-gp. The compounds are assigned to permeability/absorption classes by comparison of the AB permeabilities with the AB permeabilities of reference compounds with known in vitro permeability and oral absorption in the human. Identical or similar permeabilities in both transport directions indicate passive permeation, vectorial permeability points to additional active transport mechanisms. Higher PEBA than PEAB indicates the involvement of active efflux mediated by MDR1 P-gp. Active transport is concentration-dependently saturable.
MDCK-MDR1 cells (1-2×10e5 cells/1 cm2 area) are seeded on filter inserts (Costar transwell polycarbonate or PET filters, 0.4 μm pore size) and cultured (DMEM) for 7 days. Subsequently, the MDR1 expression is boosted by culturing the cells with 5 mM sodium butyrate in full medium for 2 days. Compounds are dissolved in appropriate solvent (like DMSO, 1-20 mM stock solutions). […] The transport solution (TL) is applied to the apical or basolateral donor side for measuring A-B or B-A permeability (3 filter replicates), respectively. The receiver side contains the same buffer as the donor side. Samples are collected at the start and end of experiment from the donor and at various time intervals for up to 2 hours also from the receiver side for concentration measurement by HPLC-MS/MS or scintillation counting. Sampled receiver volumes are replaced with fresh receiver solution. Efflux ratio is calculated dividing the Papp (b-a) values by the Papp (a-b) values.

[2] = Plasma protein binding with equilibrium dialysis, human plasma; format: in vitro ADME; details: human plasma, 1.0 μM, equilibrium dialysis 2 hours 37° C.
Text: (§1) Plasma Protein Binding (Determination of Human and Rat Plasma Protein Binding with Equilibrium Dialysis)
(§2) This equilibrium dialysis (ED) technique is used to determine the approximate in vitro fractional binding of test compounds to human and rat plasma proteins.
(§3) Dianorm Teflon dialysis cells (micro 0.2) are used. Each cell consists of a donor and an acceptor chamber, separated by an ultrathin semipermeable membrane with a 5 kDa molecular weight cutoff.
(§4) Stock solutions for each test compound are prepared in DMSO at 1 mM and diluted to a final concentration of 1.0 μM. The subsequent dialysis solutions are prepared in pooled human and rat plasma (with NaEDTA)
(§5) Aliquots of 200 μL dialysis buffer (100 mM potassium phosphate, pH 7.4) are dispensed into the buffer chamber. Aliquots of 200 μL test compound dialysis solution are dispensed into the plasma chambers. Incubation is carried out for 2 hours under rotation at 37° C.
(§6) At the end of the dialysis period, the dialysate is transferred into reaction tubes. The tubes for the buffer fraction contain 0.2 ml Acetonitril/water (80/20). Aliquots of 25 μl of the plasma dialysate are transferred into deep well plates and mixed with 25 μl Acetonitril/water (80/20), 25 μl buffer, 25 μl calibration solution and 25 μl Internal Standard solution. Protein precipitation is done by adding 200 μl Acetonitrile. Aliquots of 50 μl of the buffer dialysate are transferred into deep well plates and mixed with 25 μl blank plasma, 25 μl Internal Standard solution and 200 μl Acetonitril. Samples are measured on HPLC-MS/MS-Systems and evaluated with Analyst-Software.
(§7) Percent bound is calculated with the formula: % bound=(plasma concentration−buffer concentration/plasma concentration)×100 and % free is calculated as difference.

[3] = Plasma protein binding with equilibrium dialysis, rat plasma; format: in vitro ADME; details: rat plasma, 1.0 μM, equilibrium dialysis 2 hours 37° C.
Text: as §1, §2, §3, §4, §5, §6, §7

[4] = Metabolic stability in pooled human liver microsomes; format: in vitro ADME; details: human liver microsomes, 1 mg/mL protein, 1 μM compound, 37° C.
Procedure: The metabolic degradation of the test compound was assayed at 37° C. with pooled liver microsomes from various species. The final incubation volume of 100 μl per time point contains TRIS buffer pH 7.6 at room temperature (0.1 M), magnesium chloride (5 mM), microsomal protein (1 mg/mL for human and dog, 0.5 mg/mL for other species) and the test compound at a final concentration of 1 μM. Following a short preincubation period at 37° C., the reactions were initiated by addition of betanicotinamide adenine dinucleotide phosphate, reduced form (NADPH, 1 mM), and terminated by transferring an aliquot into solvent after different time points. […] The half-life was determined by the slope of the semi-logarithmic plot of the concentration-time profile.

[5] = target: PDE10 (Homo sapiens (Human), UniProt Q9Y233); assay: Phosphodiesterase (PDE) 10 assay with fluorescent substrate (IMAP, fluorescence polarization); format: biochemical; details: labeled cAMP 30 nM
PDE10, sequence (Q9Y233 whole entry): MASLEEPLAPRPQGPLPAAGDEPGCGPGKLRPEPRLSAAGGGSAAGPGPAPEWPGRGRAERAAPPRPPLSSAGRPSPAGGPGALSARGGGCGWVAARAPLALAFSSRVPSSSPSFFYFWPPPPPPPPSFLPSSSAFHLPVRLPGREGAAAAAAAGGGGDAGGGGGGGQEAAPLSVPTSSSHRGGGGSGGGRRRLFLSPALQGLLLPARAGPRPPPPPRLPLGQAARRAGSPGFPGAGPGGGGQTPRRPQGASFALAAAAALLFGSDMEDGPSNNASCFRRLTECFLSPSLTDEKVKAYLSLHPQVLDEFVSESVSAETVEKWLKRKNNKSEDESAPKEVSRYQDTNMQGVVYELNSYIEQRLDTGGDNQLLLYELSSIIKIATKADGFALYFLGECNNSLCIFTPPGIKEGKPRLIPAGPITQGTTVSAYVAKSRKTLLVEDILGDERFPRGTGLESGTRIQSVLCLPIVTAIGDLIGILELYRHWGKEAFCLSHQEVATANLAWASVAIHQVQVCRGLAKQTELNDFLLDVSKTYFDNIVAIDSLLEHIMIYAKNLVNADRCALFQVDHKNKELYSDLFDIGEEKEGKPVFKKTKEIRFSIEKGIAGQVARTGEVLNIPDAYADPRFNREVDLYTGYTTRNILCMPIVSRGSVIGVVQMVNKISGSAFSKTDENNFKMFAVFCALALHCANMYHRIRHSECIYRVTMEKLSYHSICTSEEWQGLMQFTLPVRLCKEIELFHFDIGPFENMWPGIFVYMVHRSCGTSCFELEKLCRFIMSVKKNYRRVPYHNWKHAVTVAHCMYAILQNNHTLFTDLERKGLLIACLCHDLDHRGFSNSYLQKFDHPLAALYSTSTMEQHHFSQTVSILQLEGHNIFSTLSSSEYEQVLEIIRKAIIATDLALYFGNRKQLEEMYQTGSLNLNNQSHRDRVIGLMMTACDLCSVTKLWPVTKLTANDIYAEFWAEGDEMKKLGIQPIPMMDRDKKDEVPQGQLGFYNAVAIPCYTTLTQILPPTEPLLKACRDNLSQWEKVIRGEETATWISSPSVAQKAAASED
Procedure: (§8) The PDE reaction cleaves cAMP to AMP. The IMAP system (Molecular Device) using fluorescence polarization (FP) as detection principle was used to measure enzyme activity. A fluorescent labeled cAMP was used as substrate for the reaction, generating a labeled AMP. The fluorescent AMP binds specifically to the large M(III)-based nano-particles which reduces the rotational speed of the substrate and thus increases its polarization.
(§9) The inhibition of PDE 2A or 10 enzyme activity was assessed using IMAP-Phosphodiesterase-cAMP fluorescence labeled substrate (Molecular Devices, Order No. R7506), IMAP TR-FRET screening express (Molecular Devices, Order No. R8160, the TR-FRET component will not be used) and PDE 2A or PDE10 protein expressed upon baculovirus infection in SF9 cells. The cells were incubated after infection for ˜3 days and protein production was confirmed by Western Blot. The cells were collected by centrifugation and the pellet frozen in liquid nitrogen before it was resuspended in PBS containing 1% Triton X-100 and protease inhibitors. After 45 min incubation on ice, the cell debris was removed by centrifugation (13.000 rpm, 30 min).
(§10) All reactions were performed in 384 well plates, Perkin Elmer black optiplates and IMAP reaction buffer with 0.1% Tween20 (kit component)
(§11) Compounds were serial diluted in DMSO. With an intermediate dilution step with reaction buffer DMSO concentration was reduced to achieve 1% DMSO in the assay reaction. Setup of the assay started with 10 μl enzyme (˜10 ng/well, depending on prep. batch), 5 μl compound, reaction was started by addition of 5 μl labeled cAMP (30 nM, final concentration), immediately mixed for 15 seconds on a Eppendorf mixmate (2000 rpm) followed by an incubation at room temperature for 90 minutes in the dark. Reaction is stopped by adding of 60 μl binding buffer for FP/cAMP (kit component).
(§12) Each assay plate contained wells with vehicle controls (1% DMSO) for the measurement of non-inhibited reaction (=100% control) and wells without enzyme as 0% controls.

[6] = target: PDE 2A (Homo sapiens (Human), UniProt O00408); assay: Phosphodiesterase (PDE) 2A assay with fluorescent substrate (IMAP, fluorescence polarization); format: biochemical; details: labeled cAMP 30 nM, read-out: PDE2 IC50
PDE 2A, sequence (O00408 whole entry, species assumed): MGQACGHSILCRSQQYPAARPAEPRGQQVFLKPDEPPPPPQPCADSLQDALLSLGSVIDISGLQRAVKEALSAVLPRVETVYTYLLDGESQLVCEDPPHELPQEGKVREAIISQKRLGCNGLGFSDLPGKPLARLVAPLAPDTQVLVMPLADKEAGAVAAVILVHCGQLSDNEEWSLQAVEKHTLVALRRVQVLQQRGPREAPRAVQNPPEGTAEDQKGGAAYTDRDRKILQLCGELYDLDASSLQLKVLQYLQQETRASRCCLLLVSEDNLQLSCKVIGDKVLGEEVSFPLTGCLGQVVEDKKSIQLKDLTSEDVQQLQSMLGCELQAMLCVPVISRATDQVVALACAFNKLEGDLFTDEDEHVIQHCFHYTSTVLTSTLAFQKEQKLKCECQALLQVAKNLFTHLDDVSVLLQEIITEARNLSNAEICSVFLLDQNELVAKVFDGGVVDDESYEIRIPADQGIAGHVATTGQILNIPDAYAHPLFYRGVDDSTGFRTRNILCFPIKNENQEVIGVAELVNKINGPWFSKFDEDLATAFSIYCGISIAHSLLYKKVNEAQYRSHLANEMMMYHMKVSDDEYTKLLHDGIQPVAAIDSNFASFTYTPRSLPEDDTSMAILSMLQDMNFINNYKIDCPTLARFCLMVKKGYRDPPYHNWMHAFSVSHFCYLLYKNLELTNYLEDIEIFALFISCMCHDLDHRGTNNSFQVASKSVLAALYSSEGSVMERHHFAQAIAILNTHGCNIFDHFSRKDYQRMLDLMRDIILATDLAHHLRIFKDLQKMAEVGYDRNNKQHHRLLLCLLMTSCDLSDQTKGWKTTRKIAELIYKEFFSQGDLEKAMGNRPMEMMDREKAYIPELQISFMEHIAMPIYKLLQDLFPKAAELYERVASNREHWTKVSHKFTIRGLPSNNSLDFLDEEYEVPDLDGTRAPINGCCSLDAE
Procedure: as §8, §9, §10, §11, §12

Papp (a-b) mean [1]	PPB HUM % BINDING [2]	PPB RAT % BINDING [3]	Half-life t½ human [4]	pIC50 [5]	efflux ratio [1]	pIC50 [6]	SMILES
23 10-6 cm/s	–	–	–	–	–	–	Cc1cnc2c(C(=O)NC3(c4ccc(C(F)(F)F)cc4F)CCOCC3(C)O)cnn2c1 (single isomer, unassigned) [Example 84b]
31 10-6 cm/s	–	–	–	–	–	–	Cc1cnc2c(C(=O)NC3(c4ccc(C(F)(F)F)cc4F)CCOCC3(C)O)cnn2c1 (single isomer, unassigned) [Example 84a]
64 10-6 cm/s	65.3%	66.2%	>2.17 h	< 5.00	–	–	Cc1cnc2c(C(=O)NC3(c4ccc(C(F)(F)F)cc4F)CCOCC3O)cnn2c1 (single isomer, unassigned) [Example 81b]

The remaining lines, values behind:

SMILES	Papp (a-b) mean [1]	PPB HUM % BINDING [2]	PPB RAT % BINDING [3]	Half-life t½ human [4]	pIC50 [5]	efflux ratio [1]	pIC50 [6]
O=C(NC1(c2ccc(C(F)(F)F)cc2F)COCC1O)c1cnn2cc(C3CC3)cnc12 (single isomer, unassigned) [Example 70]	20 10-6 cm/s	79.4%	–	1.05 h	< 5.00	2.1	5.90
O=C(NC1(c2ccc(C(F)(F)F)cc2F)COCC1O)c1cnn2cc(C3CC3)cnc12 (single isomer, unassigned) [Example 71]	23 10-6 cm/s	81.1%	–	>2.17 h	< 5.00	1.9	7.89
